Source: PMC5453931, “Cathelicidin-trypsin inhibitor loop conjugate represents a promising antibiotic candidate with protease stability” (Scientific Reports, 2017)
In brackets after ≈: the same amount, converted by molar mass. Where a SMILES comes first, the peptide text is derived from it. Bridges are numbered along the chain shown (N, C = ends).

Assays:
E. coli 08040726 = assay: MIC, two-fold broth microdilution (second listing of the strain number); format: cell-based; conditions: Gram-negative, MH broth, 37 °C, 18 h, mean of three independent experiments in duplicates
Protocol: (§1) A two-fold broth microdilution method described in our previous paper was used to determine the antimicrobial activities of parental and hybrid peptides. More than 30 strains including Gram-negative bacteria, Gram-positive bacteria and fungi were used in the current assay, in which the standard strains were stored in our lab and the clinical strains were collected from local hospitals. Briefly, bacteria were incubated in Mueller-Hinton broth (MH broth) at 37 °C to exponential phase and diluted to 10^6 CFU/mL. A serial dilution of peptide sample were prepared in 96-well microtiter plates (50 μL) and mixed with equal volume of microbial inoculums (50 μL). The plate was slowly shaken in the microbial incubator, and measured at A595 after incubation at 37 °C for 18 h. The minimal concentrations at which no microbial growth occurred were recorded as MIC (minimal inhibitory concentration) values. The traditional antibiotic ampicillin was used as positive control. The results are shown in an average of the MICs obtained from three independent experiments.

Aeromonas sobria = assay: microbe, parasite or virus in culture; format: cell-based; conditions: Aquatic pathogenic bacteria; two-fold broth microdilution, 37 °C, 18 h; mean of three independent experiments in duplicates
Protocol: as §1

Aeromonas veronii = assay: microbe, parasite or virus in culture; format: cell-based; conditions: Aquatic pathogenic bacteria; two-fold broth microdilution, 37 °C, 18 h; mean of three independent experiments in duplicates
Protocol: as §1

[1] = test system: Bacillus subtilis 08042313; assay: microbe, parasite or virus in culture; format: cell-based; conditions: Gram-positive; two-fold broth microdilution, MH broth, 37 °C, 18 h; mean of three independent experiments in duplicates
Protocol: as §1

[2] = test system: Candida albicans 08030102; assay: microbe, parasite or virus in culture; format: cell-based; conditions: Fungi; two-fold broth microdilution, 37 °C, 18 h; mean of three independent experiments in duplicates
Protocol: as §1

Candida glabrata 08A802 = assay: microbe, parasite or virus in culture; format: cell-based; conditions: Fungi; two-fold broth microdilution, 37 °C, 18 h; mean of three independent experiments in duplicates
Protocol: as §1

E. Coli 08032823 = assay: microbe, parasite or virus in culture; format: cell-based; conditions: Gram-negative; two-fold broth microdilution, MH broth, 37 °C, 18 h; mean of three independent experiments in duplicates
Protocol: as §1

[3] = test system: Enterococcus faecium 08052315; assay: microbe, parasite or virus in culture; format: cell-based; conditions: Gram-positive; two-fold broth microdilution, MH broth, 37 °C, 18 h; mean of three independent experiments in duplicates
Protocol: as §1

[4] = test system: Escherichia coli ATCC25922; assay: microbe, parasite or virus in culture; format: cell-based; conditions: Gram-negative; two-fold broth microdilution, MH broth, 37 °C, 18 h; mean of three independent experiments in duplicates
Protocol: as §1

K. Pneumoniae 08031012 = assay: microbe, parasite or virus in culture; format: cell-based; conditions: Gram-negative; two-fold broth microdilution, MH broth, 37 °C, 18 h; mean of three independent experiments in duplicates
Protocol: as §1

K. Pneumoniae 08040202 = assay: microbe, parasite or virus in culture; format: cell-based; conditions: Gram-negative; two-fold broth microdilution, MH broth, 37 °C, 18 h; mean of three independent experiments in duplicates
Protocol: as §1

P. Aeruginosa 08021015 = assay: microbe, parasite or virus in culture; format: cell-based; conditions: Gram-negative; two-fold broth microdilution, MH broth, 37 °C, 18 h; mean of three independent experiments in duplicates
Protocol: as §1

S. Aureus 08032706 = assay: microbe, parasite or virus in culture; format: cell-based; conditions: Gram-positive; two-fold broth microdilution, MH broth, 37 °C, 18 h; mean of three independent experiments in duplicates
Protocol: as §1

S. Aureus 08032810 = assay: microbe, parasite or virus in culture; format: cell-based; conditions: Gram-positive; two-fold broth microdilution, MH broth, 37 °C, 18 h; mean of three independent experiments in duplicates
Protocol: as §1

[5] = test system: Shigella dysenteriae 0804203; assay: microbe, parasite or virus in culture; format: cell-based; conditions: Gram-negative; two-fold broth microdilution, MH broth, 37 °C, 18 h; mean of three independent experiments in duplicates
Protocol: as §1

Vibrio brasiiensis = assay: microbe, parasite or virus in culture; format: cell-based; conditions: Aquatic pathogenic bacteria; two-fold broth microdilution, 37 °C, 18 h; mean of three independent experiments in duplicates
Protocol: as §1

Vibrio cholerae = assay: microbe, parasite or virus in culture; format: cell-based; conditions: Aquatic pathogenic bacteria; two-fold broth microdilution, 37 °C, 18 h; mean of three independent experiments in duplicates
Protocol: as §1

E. Coli 08032813 = assay: MIC, two-fold broth microdilution; format: cell-based; conditions: Gram-negative; two-fold broth microdilution, MH broth, 37 °C, 18 h; mean of three independent experiments in duplicates
Protocol: as §1

[6] = test system: Staphylococcus epidermidis; assay: MIC, two-fold broth microdilution; format: cell-based; conditions: Gram-positive; two-fold broth microdilution, MH broth, 37 °C, 18 h; mean of three independent experiments in duplicates
Protocol: as §1

Vibrio Parahaemolyticus = assay: MIC, two-fold broth microdilution; format: cell-based; conditions: Aquatic pathogenic bacteria; two-fold broth microdilution, 37 °C, 18 h; mean of three independent experiments in duplicates
Protocol: as §1

08030209 = assay: microbe, parasite or virus in culture; format: cell-based, Arcyria cinerea; conditions: Fungi; two-fold broth microdilution, 37 °C, 18 h; mean of three independent experiments in duplicates
Protocol: as §1

trypsin = assay: Trypsin inhibition assay (NBLAN hydrolysis, Dixon method); format: biochemical; conditions: 50 mM Tris–HCl pH 7.8, trypsin 0.1 mg/mL, 5 min pre-incubation at 37 °C, substrate NBLAN 48, 96, 192 μg/mL, 405 nm
Protocol: The inhibition effect on the hydrolysis of synthetic chromogenic substrate by trypsin was assayed in 50 mM Tris–HCl, pH 7.8 buffer at room temperature. The trypsin of final concentration of 0.1 mg/mL and different amounts of the hybrid peptide (final concentrations ranging from 0 to 0.16 μg/mL) were pre-incubated for 5 min at 37 °C. N-α-Benzoyl-DL-arginine p-nitroanilide hydrochloride (NBLAN) was used as a substrate for trypsin. The reaction was initiated by the addition of NBLAN with a final concentration of 48, 96 and 192 μg/mL, respectively. The formation of yellow product, p-nitroaniline was monitored continuously at 405 nm[61]. The inhibition constant Ki of the hybrid peptides were determined according to the method of Dixon (1953)[62].

For `CC[C@H](C)[C@@H]1NC(=O)[C@H](CO)NC(=O)[C@H](CCCCN)NC(=O)[C@H]([C@@H](C)O)NC(=O)[C@H](Cc2c[nH]c3ccccc23)NC(=O)[C@@H](N)CSSC[C@@H](C(=O)N[C@@H](CCCCN)C(=O)N[C@@H](Cc2ccccc2)C(=O)N[C@@H](Cc2ccccc2)C(=O)N[C@@H](CCCCN)C(=O)N[C@@H](CCCNC(=N)N)C(=O)N[C@@H](CC(C)C)C(=O)N[C@@H](CC(C)C)C(=O)N[C@@H](CCCCN)C(=O)N[C@@H](CO)C(=O)N[C@H](C(=O)N[C@@H](CCCNC(=N)N)C(=O)N[C@@H](CCCNC(=N)N)C(=O)N[C@@H](C)C(=O)N[C@H](C(=O)N[C@@H](CCCCN)C(=O)N[C@@H](CCCCN)C(=O)N[C@@H](Cc2ccccc2)C(N)=O)C(C)C)C(C)C)NC(=O)[C@@H]2CCCN2C(=O)[C@H](CCCCN)NC(=O)[C@@H]2CCCN2C(=O)[C@@H]2CCCN2C1=O` [TIH3] (H-CWTKSIPPKPCKFFKRLLKSVRRAVKKF-NH2; disulfide 1-11), the “MIC E. Coli 08040726 (second line with this strain number)” value (E. coli 08040726) was “— (no detectable activity in MIC assay in dose of 200 µg/mL or in trypsin inhibition assay at concentration of 160 μg/mL)”, the “MIC Aeromonas sobria” value (Aeromonas sobria) was “— (no detectable activity in MIC assay in dose of 200 µg/mL or in trypsin inhibition assay at concentration of 160 μg/mL)” and the “MIC Aeromonas veronii” value (Aeromonas veronii) was “— (no detectable activity in MIC assay in dose of 200 µg/mL or in trypsin inhibition assay at concentration of 160 μg/mL)”. For the same molecule, the “MIC Bacillus subtilis 08042313” value [1] was “— (no detectable activity in MIC assay in dose of 200 µg/mL or in trypsin inhibition assay at concentration of 160 μg/mL)”, the “MIC Candida albicans 08030102” value [2] was “— (no detectable activity in MIC assay in dose of 200 µg/mL or in trypsin inhibition assay at concentration of 160 μg/mL)” and the “MIC Candida glabrata 08A802” value (Candida glabrata 08A802) was “— (no detectable activity in MIC assay in dose of 200 µg/mL or in trypsin inhibition assay at concentration of 160 μg/mL)”. The “MIC E. Coli 08032823” value (E. Coli 08032823) was “— (no detectable activity in MIC assay in dose of 200 µg/mL or in trypsin inhibition assay at concentration of 160 μg/mL)”, the “MIC Enterococcus faecium 08052315” value [3] was “— (no detectable activity in MIC assay in dose of 200 µg/mL or in trypsin inhibition assay at concentration of 160 μg/mL)” and the “MIC Escherichia coli ATCC25922” value [4] was “— (no detectable activity in MIC assay in dose of 200 µg/mL or in trypsin inhibition assay at concentration of 160 μg/mL)”. The “MIC K. Pneumoniae 08031012” value (K. Pneumoniae 08031012) was “— (no detectable activity in MIC assay in dose of 200 µg/mL or in trypsin inhibition assay at concentration of 160 μg/mL)”, the “MIC K. Pneumoniae 08040202” value (K. Pneumoniae 08040202) was “— (no detectable activity in MIC assay in dose of 200 µg/mL or in trypsin inhibition assay at concentration of 160 μg/mL)” and the “MIC P. Aeruginosa 08021015” value (P. Aeruginosa 08021015) was “— (no detectable activity in MIC assay in dose of 200 µg/mL or in trypsin inhibition assay at concentration of 160 μg/mL)”. For the same molecule, the “MIC S. Aureus 08032706” value (S. Aureus 08032706) was “— (no detectable activity in MIC assay in dose of 200 µg/mL or in trypsin inhibition assay at concentration of 160 μg/mL)”, the “MIC S. Aureus 08032810” value (S. Aureus 08032810) was “— (no detectable activity in MIC assay in dose of 200 µg/mL or in trypsin inhibition assay at concentration of 160 μg/mL)” and the “MIC Shigella dysenteriae 0804203” value [5] was “— (no detectable activity in MIC assay in dose of 200 µg/mL or in trypsin inhibition assay at concentration of 160 μg/mL)”. The “MIC Vibrio brasiiensis” value (Vibrio brasiiensis) was “— (no detectable activity in MIC assay in dose of 200 µg/mL or in trypsin inhibition assay at concentration of 160 μg/mL)”, the “MIC Vibrio cholerae” value (Vibrio cholerae) was “— (no detectable activity in MIC assay in dose of 200 µg/mL or in trypsin inhibition assay at concentration of 160 μg/mL)” and the “MIC E. Coli 08032813” value (E. Coli 08032813) was “— (no detectable activity in MIC assay in dose of 200 µg/mL or in trypsin inhibition assay at concentration of 160 μg/mL)”. The “MIC Staphylococcus epidermidis” value [6] was “— (no detectable activity in MIC assay in dose of 200 µg/mL or in trypsin inhibition assay at concentration of 160 μg/mL)”, the “MIC Vibrio Parahaemolyticus” value (Vibrio Parahaemolyticus) was 37.5 µg/mL (≈ 11.1 µM) and the “MIC Arcyria cinerea 08030209” value 08030209 was “— (no detectable activity in MIC assay in dose of 200 µg/mL or in trypsin inhibition assay at concentration of 160 μg/mL)”. For the same molecule, the Ki (trypsin) was 7.5 µM.
